Test results from paper PMC12005787, “Synthetic Lethality of SHP2 and XIAP Suppresses Proliferation and Metastasis in KRAS‐mutant Nonsmall Cell Lung Cancer” (Advanced Science, 2025).
Read-outs that look alike come from different tables or passages of the source. *1 amine or outer side, *2 acyl side, *3 side chain or, on linkers, in order; H or OH if unused. Where a SMILES comes first, the peptide text is derived from it. Bridges are numbered along the chain shown (N, C = ends). Roman numbers before positions name the chains, in order. [ ]: non-standard residue; d: D form. Hexamethylenediamine = C(CCCN[*:2])CCN[*:1]; Dip = N[C@H](C(=O)O)C(c1ccccc1)c1ccccc1; Chg = N[C@H](C(=O)O)C1CCCCC1; NMeA = CN[C@@H](C)C(=O)O

Experiments:
[1] = test system: NCI-H2122, A549, and NCI-H1944 cells; assay: Cell senescence β-galactosidase staining; type: cell-based, human; conditions: NCI‐H2122 cells; candidate drugs 10 μM
Procedure: Cell senescence β-galactosidase staining
NCI-H2122, A549, and NCI-H1944 cells in the logarithmic growth phase were seeded into 48-well plates and cultured overnight. The supernatant was aspirated and fresh serum-free (0%), low-serum (3%), or regular serum (10%) medium with different drugs was added for 48 h. When the supernatant was discarded, β-galactosidase staining fixation fluid were added for 15 min and β-galactosidase staining solution were imported overnight at 37 ℃.
Finally, the staining results were recorded using an inverted microscope.

[2] = biological target: T1, SHP2 (Homo sapiens, UniProt Q06124); assay: Cellular thermal shift assay (CETSA); type: binding; conditions: NCI‐H2122 cell lysate
T1 construct: endogenous in cells; host or cells: NCI-H2122
T1 sequence (Q06124 1-593): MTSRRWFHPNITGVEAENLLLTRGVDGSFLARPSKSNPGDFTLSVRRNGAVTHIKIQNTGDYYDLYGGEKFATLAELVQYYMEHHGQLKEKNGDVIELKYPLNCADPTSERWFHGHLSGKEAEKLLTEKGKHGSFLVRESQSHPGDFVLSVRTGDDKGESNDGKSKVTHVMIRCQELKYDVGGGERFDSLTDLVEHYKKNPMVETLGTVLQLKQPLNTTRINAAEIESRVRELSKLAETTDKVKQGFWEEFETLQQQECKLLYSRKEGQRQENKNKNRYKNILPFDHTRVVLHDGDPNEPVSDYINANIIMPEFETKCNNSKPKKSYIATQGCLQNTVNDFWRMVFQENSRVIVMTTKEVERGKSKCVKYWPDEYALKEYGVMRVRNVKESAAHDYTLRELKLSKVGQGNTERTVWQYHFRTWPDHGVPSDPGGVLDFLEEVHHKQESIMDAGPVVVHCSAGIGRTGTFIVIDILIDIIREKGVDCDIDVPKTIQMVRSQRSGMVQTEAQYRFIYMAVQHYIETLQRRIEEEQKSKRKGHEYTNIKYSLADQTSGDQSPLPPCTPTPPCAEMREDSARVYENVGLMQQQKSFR
Procedure: NCI‐H2122 cells were harvested and resuspended with pre‐cooled PBS containing 1% cocktail, which was then frozen in liquid nitrogen for 5 min and thawed in a water bath at 37 °C for 5 min for three repetitions. The supernatant was collected via centrifugation at 4 °C (15 000 × g, 20 min), divided into two equal portions; one was added with test drugs or various concentrations of embelin, and the other was added with DMSO as control and subsequently incubated at 25 °C for 30 min. All samples were heated at temperatures ranging from 52–70 °C for 3 min, and subsequently in an ice bath for 3 min and collected by centrifugation at 4 °C (15 000 × g, 20 min), and added with protein sampling buffer at 100 °C for 5 min, followed by analysis of protein stability using western blotting.

[3] = test system: A549 and NCI‐H2122 cells; assay: Cell proliferation in monolayer culture (CCK-8); type: cell-based, human
Procedure: For the adherent cell viability assay, cells in the logarithmic growth phase were seeded in 96-well culture plates at a density of 5×103 well-1 and incubated overnight. Diluted compounds or DMSO were added, or specific treatments were incubated at 37 °C and 5% CO2 for 24 h or 48 h. Cell viability was determined using CCK-8 or CellLightTM Cell Viability Assay Kit, according to the manufacturer's protocol. The luminescence signals of the treated samples were normalized to those of the DMSO group. […]
Figure S7. Targeting SHP2 and XIAP produces a synthetic lethal effect. (A) Effects of NSC-87877 on cell viability of A549 and NCI-H2122 cells after 24 and 48 h were determined using the CCK-8. Bars, ± SEM. The curves were plotted using a variable slope (four-parameter) non-linear fit. (B, E, F, and I) Effects of Na3VO4 (B), birinapant (E), BV-6 (F), and LCL161 (I) on cell viability of human NCI-H2122 cells at 48 h were determined using the CCK-8. *p < 0.05, **p < 0.01 and ***p < 0.001 compared to control group (unpaired two-tailed Student’s t-test).(C, G) Effects of SHP099 (C) and GDC-0152 (G) on cell viability after 24 and 48 h were determined using the CCK-8. Bars, ± SEM. The curves were plotted using a variable slope (four-parameter) non-linear fit.(D, H) Effects of SHP099 (D) and GDC-0152 (H) on cell viability were determined after 48 h using intracellular ATP chemiluminescence. **p < 0.01 and ***p < 0.001 compared to control group (unpaired two-tailed Student’s t-test).(J) Effects of SHP099 and GDC-0152 separately and in combination, and the effect of embelin for 24 h on the cell viability were assessed using intracellular ATP […]
tailed Student’s t-test).(K) Effects of SHP099 and GDC-0152 separately and in combination with […] on the cell viability of human KRAS-WT and -mutant cells were assessed using a colony formation assay. (L, M) A549 and NCI-H2122 cells were instantaneously transfected with siPTPN11 and siXIAP separately and together for 24 h under

[4] = biological target: T2, HePTP (Homo sapiens, UniProt P35236); assay: PTPs activity assay (DiFMUP); type: biochemical
T2 construct: His; made in house; host or cells: E. coli
T2 sequence (P35236 1-360): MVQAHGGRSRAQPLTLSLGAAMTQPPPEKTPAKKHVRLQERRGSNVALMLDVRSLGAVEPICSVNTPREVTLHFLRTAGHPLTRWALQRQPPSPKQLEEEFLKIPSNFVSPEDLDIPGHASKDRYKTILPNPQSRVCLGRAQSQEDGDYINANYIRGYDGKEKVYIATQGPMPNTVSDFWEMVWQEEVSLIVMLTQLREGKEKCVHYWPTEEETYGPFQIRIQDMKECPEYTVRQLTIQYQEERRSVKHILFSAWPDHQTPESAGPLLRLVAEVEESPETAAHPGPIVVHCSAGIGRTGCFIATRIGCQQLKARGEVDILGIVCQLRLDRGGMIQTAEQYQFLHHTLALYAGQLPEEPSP
Procedure: (§1) Catalytic activity screening methods for PTPs using candidate compounds were performed as previously described.^[ [77] ^] In brief, soluble fusion PTP proteins, His‐ΔSHP2, encompassing the peptide from amino acids 205–593 retaining PTP activity, His‐ΔSHP2^K325A, His‐ΔSHP1, encompassing the peptide from amino acids 202–595 retaining PTP activity, His‐PTP1B, His‐HePTP, His‐VHR, and His‐TCPTP were cloned, expressed, and purified in E. coli. After determining protein concentration using bicinchoninic acid (BCA) assay kit, 1 µg fusion protein, 10 µM library compound were added in 100 µL reaction mixture (55 mM 4‐(2‐hydroxyethyl)‐1‐piperazineethanesulfonic acid [HEPES], 100 mM sodium chloride [NaCl], 0.5 mM ethylenediaminetetraacetic acid [EDTA], 1 mM dithiothreitol [DTT], 0.01% Triton X‐100, 0.002% bovine serum albumin [BSA], and 0.1% dimethyl sulfoxide [DMSO]) and incubated at 37 °C for 30 min in the dark, with Na3VO4 as positive control. The detection substrate DiFMUP (50 µM) was promptly added to each reaction and functioned at 37 °C for 30 min in the dark. The fluorescence intensity was then measured using Multimode Plate Reader (λa = 358 nm, λe = 455 nm, PerkinElmer, USA).

[5] = biological target: T3, PTP1B (Homo sapiens, UniProt P18031); assay: PTPs activity assay (DiFMUP); type: biochemical
T3 construct: His; made in house; host or cells: E. coli
T3 sequence (P18031 1-435): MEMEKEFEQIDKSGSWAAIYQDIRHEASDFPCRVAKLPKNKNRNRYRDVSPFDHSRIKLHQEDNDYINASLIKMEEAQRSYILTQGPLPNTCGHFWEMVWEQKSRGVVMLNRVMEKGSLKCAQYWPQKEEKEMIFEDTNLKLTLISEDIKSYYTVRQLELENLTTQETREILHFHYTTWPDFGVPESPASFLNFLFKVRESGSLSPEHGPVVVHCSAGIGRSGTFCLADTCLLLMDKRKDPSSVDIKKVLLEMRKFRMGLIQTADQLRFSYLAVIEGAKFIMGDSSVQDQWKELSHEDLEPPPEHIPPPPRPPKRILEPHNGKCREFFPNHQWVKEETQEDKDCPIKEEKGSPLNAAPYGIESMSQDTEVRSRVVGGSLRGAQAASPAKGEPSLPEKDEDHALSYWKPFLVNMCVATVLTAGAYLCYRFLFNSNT
Procedure: as §1

[6] = biological target: T4, TCPTP (Homo sapiens, UniProt P17706); assay: PTPs activity assay (DiFMUP); type: biochemical
T4 construct: His; made in house; host or cells: E. coli
T4 sequence (P17706 1-415): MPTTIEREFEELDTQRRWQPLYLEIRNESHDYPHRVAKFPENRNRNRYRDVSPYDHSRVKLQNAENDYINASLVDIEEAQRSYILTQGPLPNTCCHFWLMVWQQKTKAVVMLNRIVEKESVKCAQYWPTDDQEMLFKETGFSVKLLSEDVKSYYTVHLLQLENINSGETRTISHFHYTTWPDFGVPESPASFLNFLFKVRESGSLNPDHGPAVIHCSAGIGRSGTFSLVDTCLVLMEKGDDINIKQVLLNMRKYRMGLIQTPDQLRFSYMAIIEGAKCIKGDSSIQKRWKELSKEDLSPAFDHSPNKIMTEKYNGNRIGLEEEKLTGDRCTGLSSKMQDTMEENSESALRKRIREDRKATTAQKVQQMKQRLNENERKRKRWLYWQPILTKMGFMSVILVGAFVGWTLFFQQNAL
Procedure: as §1

[7] = biological target: T5, VHR (Homo sapiens, UniProt P51452); assay: PTPs activity assay (DiFMUP); type: biochemical
T5 construct: His; made in house; host or cells: E. coli
T5 sequence (P51452 whole entry): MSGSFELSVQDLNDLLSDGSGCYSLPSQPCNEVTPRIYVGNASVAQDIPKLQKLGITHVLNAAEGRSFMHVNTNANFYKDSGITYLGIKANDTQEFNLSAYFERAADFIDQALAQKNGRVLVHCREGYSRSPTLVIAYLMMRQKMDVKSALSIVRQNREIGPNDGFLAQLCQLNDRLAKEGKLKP
Procedure: as §1

[8] = biological target: T6, ΔSHP1 (Homo sapiens, UniProt P29350); assay: PTPs activity assay (DiFMUP); type: biochemical
T6 construct: His‐ΔSHP1, encompassing the peptide from amino acids 202–595 retaining PTP activity; His; made in house; host or cells: E. coli
T6 sequence (P29350 202-595, stated change not applied): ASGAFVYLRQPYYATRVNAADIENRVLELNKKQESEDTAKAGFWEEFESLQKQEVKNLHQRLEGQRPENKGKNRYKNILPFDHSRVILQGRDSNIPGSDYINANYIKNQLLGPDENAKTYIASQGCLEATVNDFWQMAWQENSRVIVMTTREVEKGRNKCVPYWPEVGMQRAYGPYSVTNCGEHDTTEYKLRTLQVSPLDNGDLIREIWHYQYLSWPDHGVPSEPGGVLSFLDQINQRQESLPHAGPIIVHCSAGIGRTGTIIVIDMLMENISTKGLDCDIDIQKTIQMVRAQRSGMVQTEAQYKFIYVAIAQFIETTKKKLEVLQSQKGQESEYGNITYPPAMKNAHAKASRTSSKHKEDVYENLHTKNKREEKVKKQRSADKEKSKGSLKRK
Procedure: as §1

[9] = biological target: T7, ΔSHP2 (Homo sapiens, UniProt Q06124); assay: PTPs activity assay (DiFMUP); type: biochemical
T7 construct: His‐ΔSHP2, encompassing the peptide from amino acids 205–593 retaining PTP activity; His; made in house; host or cells: E. coli
T7 sequence (Q06124 205-593): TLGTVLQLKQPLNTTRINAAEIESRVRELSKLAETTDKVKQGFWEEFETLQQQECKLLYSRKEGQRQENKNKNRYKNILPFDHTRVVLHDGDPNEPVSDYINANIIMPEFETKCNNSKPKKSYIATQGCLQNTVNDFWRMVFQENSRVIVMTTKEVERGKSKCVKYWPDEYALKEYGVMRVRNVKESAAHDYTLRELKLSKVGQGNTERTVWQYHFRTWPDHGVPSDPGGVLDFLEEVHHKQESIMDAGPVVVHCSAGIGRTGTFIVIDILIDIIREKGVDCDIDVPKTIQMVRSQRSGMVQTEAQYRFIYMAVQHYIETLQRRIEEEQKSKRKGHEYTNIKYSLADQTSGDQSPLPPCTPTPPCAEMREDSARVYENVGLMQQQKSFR
Procedure: as §1

Compound	effect on SHP2 protein stability (CETSA) [2]	IC50 ([5]; read-out: IC50 of PTPs PTP1B) [µM]	induction of cell senescence [1]	effect on cell proliferation in monolayer cell culture mode [3]	IC50 [4] [µM]	IC50 [6] [µM]	IC50 [7] [µM]	IC50 [8] [µM]	IC50 [9] [µM]	IC50 [5] [µM]
CN[C@@H](C)C(=O)N[C@H](C(=O)N1CCC[C@H]1C(=O)N[C@H](C(=O)NCCCCCCNC(=O)[C@@H](NC(=O)[C@@H]1CCCN1C(=O)[C@@H](NC(=O)[C@H](C)NC)C1CCCCC1)C(c1ccccc1)c1ccccc1)C(c1ccccc1)c1ccccc1)C1CCCCC1 [BV‐6] (I: H-[NMeA][Chg]P[Dip] / II: H-[NMeA][Chg]P[Dip]; linker I:C-II:C via Hexamethylenediamine)	did not affect SHP2 protein stability	–	induced cellular senescence	partially inhibited cell proliferation	–	–	–	–	–	–
CC[C@H](NC(=O)[C@H](C)NC)C(=O)N1C[C@@H](O)C[C@H]1Cc1c(-c2[nH]c3cc(F)ccc3c2C[C@@H]2C[C@H](O)CN2C(=O)[C@H](CC)NC(=O)[C@H](C)NC)[nH]c2cc(F)ccc12 [Birinapant]	did not affect SHP2 protein stability	–	induced cellular senescence	almost no effect	–	–	–	–	–	–
Cc1cc2c(C(C)C)c(O)c(O)c(C=O)c2c(O)c1-c1c(C)cc2c(C(C)C)c(O)c(O)c(C=O)c2c1O [S2812, AT101]	–	77.6	–	–	135	197	141	197	39.5	–
CC(C)=CCC[C@]1(C)C=Cc2c(O)c3c(c(CC=C(C)C)c2O1)O[C@]12C(=C[C@@H]4C[C@H]1C(C)(C)O[C@@]2(C/C=C(/C)C(=O)O)C4=O)C3=O [S2448, Gambogic acid]	–	–	–	–	> 200	294	123	> 200	11.8	30.3
CN[C@@H](C)C(=O)N[C@H](C(=O)N1CCC[C@H]1c1nc(C(=O)c2ccc(F)cc2)cs1)C1CCCCC1 [LCL‐161]	did not affect SHP2 protein stability	–	induced cellular senescence	almost no effect	–	–	–	–	–	–

The next lines start with results.

effect on SHP2 protein stability (CETSA) [2]	IC50 ([5]; read-out: IC50 of PTPs PTP1B) [µM]	Compound	induction of cell senescence [1]	effect on cell proliferation in monolayer cell culture mode [3]	IC50 [4] [µM]	IC50 [6] [µM]	IC50 [7] [µM]	IC50 [8] [µM]	IC50 [9] [µM]	IC50 [5] [µM]
–	> 200	CC1(C)CCC2=C(O1)c1ccccc1C(=O)C2=O [S7261, β‐Lapachone]	–	–	> 200	> 200	> 200	> 200	34.2	–
–	16.6	CC1(C)CCC(CN2CCN(c3ccc(C(=O)NS(=O)(=O)c4ccc(NCC5CCOCC5)c([N+](=O)[O-])c4)c(Oc4cnc5[nH]ccc5c4)c3)CC2)=C(c2ccc(Cl)cc2)C1 [S8048, Venetoclax]	–	–	20	9.43	36.9	81.3	2.07	–
